Measurements from patent US12172992B2, “Pyrimidines for degrading Bruton's tyrosine kinase” (AbbVie Inc., priority 2022, dated 2024).

Legend:
[1] = molecular target: BTK protein in human whole blood (Homo sapiens (Human), UniProt Q06187); assay: Btk protein in human whole blood MSD ELISA based assay (BTK degradation); type: cell-based; conditions: 6 hours, maximum BTK degradation compared to DMSO only treated samples, read-out: hWB BTK dMax (%)
Protocol: Btk protein degradation was tested using an Meso Scale Discovery-ELISA system (MSD-ELISA): (1) Test compounds were added to human whole blood; (2) human whole blood cells treated with test compounds were lysed; (3) lysed cells were treated with capture antibody, an antibody to Btk; (4) lysed cells were treated with […] to Btk; and (5) lysed cells were treated with anti-mouse antibody (tagged).
Specifically, about 80 μl of fresh human whole blood from healthy donors was transferred into each well of a 96-well V-bottom plate (Costar, Cat No. 3894). Using a TECAN™ D300e Digital Dispenser (Tecan)), 1:4 serially diluted compounds [(8 pt assay) in DMSO solution (final 0.2%) starting at 3 μM top concentration], were added in duplicate. Thereafter, plates were placed in a 37° C. incubator and incubated for 6 hours.
At the end of incubation, 80 μl of 2×CST lysis buffer (Cell Signaling Technology, Cat No. 9803), prepared from a 10× stock solution, was added per well to lyse the blood. Plates were then sealed with a plate sealer and the samples were frozen overnight at −80° C.
Total amount of BTK protein remaining in the blood samples after compound treatment was measured using MSD-ELISA. After thawing the frozen plates, blood lysates were mixed thoroughly and transferred to small spot high-bind MSD plates (Meso Scale Discovery, Cat No. L45XB-3) and coated with capturing antibody, rabbit anti-human BTK (D3H5) (Cell Signaling Technology, Cat No. 8547CF). Thereafter, primary detection antibody, mouse anti-human BTK monoclonal antibody, (BD Biosciences, Cat No. 611117) and secondary detection antibody, anti-mouse SULFO-TAG (Meso Scale Discovery, Cat No. R32AC-1) were added. The assay plates were read on an MSD S600 plate reader by the addition of 2×MSD read buffer (Meso Scale Discovery, R92TC-1). All reagent transfers, including blood lysis, was conducted using a Biomed i7 liquid handler. From the dose response curves, DC50 values were calculated by averaging data from duplicate experiments. and Curve fitting was done by non-linear regression using GraphPad Prism. The DC50 values are reported in Table 2 in the hWB BTK DC50 (nM) column The Dmax values represent the maximum amount of BTK degradation observed upon compound treatment compared to DMSO only treated samples. The dMax (%) values are reported in Table 2 in the hWB BTK dMax (%) column.

BTK in mouse bone marrow = BTK in mouse bone marrow (Mus musculus (Mouse), UniProt P35991); assay: Mouse Bone Marrow Assay (MSD ELISA of BTK degradation in bone marrow); type: in vivo; conditions: female C57BL/6J mice, single dose of Dose A, bone marrow collected after 24 hours
BTK in mouse bone marrow, sequence (P35991 whole entry): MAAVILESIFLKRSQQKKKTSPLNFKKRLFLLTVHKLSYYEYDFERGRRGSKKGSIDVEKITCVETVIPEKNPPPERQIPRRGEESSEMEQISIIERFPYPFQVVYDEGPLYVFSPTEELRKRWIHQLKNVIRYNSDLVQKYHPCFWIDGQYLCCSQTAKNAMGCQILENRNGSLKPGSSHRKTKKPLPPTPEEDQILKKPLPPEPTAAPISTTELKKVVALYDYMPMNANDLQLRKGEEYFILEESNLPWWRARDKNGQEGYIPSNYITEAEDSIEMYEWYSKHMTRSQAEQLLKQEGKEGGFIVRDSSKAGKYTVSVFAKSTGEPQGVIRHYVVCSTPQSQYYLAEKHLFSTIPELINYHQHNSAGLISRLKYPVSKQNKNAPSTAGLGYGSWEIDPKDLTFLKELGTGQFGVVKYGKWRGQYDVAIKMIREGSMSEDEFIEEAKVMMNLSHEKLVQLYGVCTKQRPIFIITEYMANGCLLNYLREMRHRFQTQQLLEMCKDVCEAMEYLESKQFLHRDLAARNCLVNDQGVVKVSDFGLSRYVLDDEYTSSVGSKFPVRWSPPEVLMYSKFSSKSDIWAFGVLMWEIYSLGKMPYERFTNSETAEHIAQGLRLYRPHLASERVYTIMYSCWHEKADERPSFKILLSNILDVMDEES
Protocol: Female C57BL/6J mice (Jackson Laboratories) were used for this study. Compounds or vehicle/control were prepped with EtOH; PEG-400; Phosal 53 MCT (10:30:60, v/v). Four mice were tested per compound or vehicle/control. On Day 1, mice were administered a single dose of Dose A. On Day 2 (after 24 hours), tissue (bone marrow) was collected from one hind leg per mouse.
An MSD (Meso Scale Discovery) ELISA (enzyme-linked immunosorbent assay) based assay was used to determine BTK degradation in mouse bone marrow. The following materials and equipment were used: 10% NP40 solution (nonionic polyoxyethylene surfactant, ThermoFisher, cat no. 28324); protease inhibitor mini tablet (Roche, cat no. 05 892 970 001); PhosphoSTOP™ tablet (Roche, cat no. 04 906 837 001); Pierce™ BCA Protein Assay Kit (Thermofisher, Cat No. 23225); Precellys® 2 mL lysing tube with 2.8 mm beads (VWR, cat no. 10032-756); Bertin Precellys® 24/Cryolys® cooling system; 96-well MSD streptavidin pre-coated plates (MSD, cat no. L15SA-1); MSD Blocker A (MSD, cat no. R93BA-4); capture antibody, biotinylated BTK mAb (BD Biosciences, cat no. 624008; custom order); primary detection antibody, BTK RpAb (rabbit polyclonal antibody, CST, cat no. 8547S, D3H5 clone); secondary detection antibody, anti-Rabbit-Sulfo-Tag (MSD, cat no. R32AB-1); read Buffer, 4× (MSD, cat no. R92TC-1); recombinant BTK protein (Thermofisher, cat no. PR5442A); MSD Tris Wash Buffer (10×) (MSD, cat no. R61TX-1); PBS (phosphate-buffered saline); deionized water (diH2O); Lysis Buffer [0.2% NP40 in PBS+Protease Inhibitor tablet (1 tablet/10 mL)+PhosphoSTOP tablet (1 tablet/10 mL)]; 3% MSD Blocker A [MSD Blocker A+450 mL diH2O+50 mL]; and 10×MSD Tris Wash Buffer.
Lysis buffer [(PBS+0.2% NP40+PI (protease inhibitor)+PhosphoSTOP)] was prepared and put on ice until it was fully cold. Ice cold lysis buffer […] was added to each Precellys® tube containing beads and bone marrow sample. Sample tubes were transferred into Precellys® machine and homogenized using 5000 rpm—2×20 seconds. The sample lysates were centrifuged at 14,000 rpm for 20 minutes at 4° C. after homogenizing.
The protein concentration was determined using Pierce™ BCA Protein Assay Kit following manufacturer's recommended protocol. The protein normalized working solution was prepared, using 30 μg protein per sample lysate for assay.
A 300 ng/ml working stock solution of recombinant BTK protein in lysis buffer was prepared, and the sample was serially diluted at 3-fold dilution (10-point assay, highest concentration was 300 ng/mL and lowest concentration was 0.015 ng/mL)
MSD plate coating: Coating antibody (biotinylated-BTK mAb) stock solution was prepared at 1 μg/mL in PBS buffer. 50 μL/well capture antibody (Biotinylated BTK mAb) solution was added, and the plates were shaken gently at ambient temperature for two hours. The plates were washed 3 times with 1×MSD Tris Wash Buffer in a plate washer (300 μL/well), and the plates were blocked with 3% MSD Blocker A (150 μL/well). The plates were incubated for an additional 1-2 hours at ambient temperature with gentle shaking. The plates were washed 3 times with 1×MSD wash buffer using plate washer. Bone marrow lysates (30 μg) at a final volume of 50 μL/well were added into the plates. The serially diluted standard samples were added to the same plates at a final volume of 50 μL/well. The plates were incubated overnight at 4° C. with gentle shaking.
The plates were washed three times with 1×MSD wash buffer (prepared from 10× concentration buffer) using plate washer. Primary detection antibody at 50 μL/well was added (BTK RpAb; 1:1000 dilution in 1% MSD Blocker A). The plates were incubated for two hours at ambient temperature with gentle shaking. The plates were washed three times with 1×MSD wash buffer using plate washer. Anti-Rabbit-SULFO-TAG secondary antibodies (50 μl/well) were added, 1:500 diluted in 1% MSD Blocker A, and the plates were incubated for one to two hours at ambient temperature. […]

BTK protein in human whole blood, sequence (Q06187 whole entry): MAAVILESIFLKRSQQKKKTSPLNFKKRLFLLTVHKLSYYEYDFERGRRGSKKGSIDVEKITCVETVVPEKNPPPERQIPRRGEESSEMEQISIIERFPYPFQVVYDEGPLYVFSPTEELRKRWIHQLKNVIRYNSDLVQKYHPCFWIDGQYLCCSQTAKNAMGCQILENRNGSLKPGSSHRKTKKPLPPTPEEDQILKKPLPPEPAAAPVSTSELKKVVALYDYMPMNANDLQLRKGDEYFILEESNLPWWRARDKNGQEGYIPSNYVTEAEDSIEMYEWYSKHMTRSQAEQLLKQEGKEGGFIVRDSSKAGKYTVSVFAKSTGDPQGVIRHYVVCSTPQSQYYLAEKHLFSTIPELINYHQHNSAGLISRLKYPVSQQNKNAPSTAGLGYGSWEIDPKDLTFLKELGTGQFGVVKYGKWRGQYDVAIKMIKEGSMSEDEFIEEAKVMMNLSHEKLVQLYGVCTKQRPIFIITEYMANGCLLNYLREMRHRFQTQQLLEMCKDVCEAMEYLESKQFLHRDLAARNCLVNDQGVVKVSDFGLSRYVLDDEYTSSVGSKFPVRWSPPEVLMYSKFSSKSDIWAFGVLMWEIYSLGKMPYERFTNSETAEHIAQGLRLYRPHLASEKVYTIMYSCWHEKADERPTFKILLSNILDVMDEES

SMILES: Cc1cc(-c2cc(Nc3ccc(N4CCN(CCc5ccc(N6CCC(=O)NC6=O)cc5)C[C@@H]4C(C)C)cn3)ncn2)ccc1[C@@H](C)NC(=O)c1nc(C(C)(C)C)no1 [Example 13, 3-tert-butyl-N-[(1R)-1-{4-[6-({5-[(2S)-4-{2-[4-(2,4-dioxo-1,3-diazinan-1-yl)phenyl]ethyl}-2-(propan-2-yl)piperazin-1-yl]pyridin-2-yl}amino)pyrimidin-4-yl]-2-methylphenyl}ethyl]-1,2,4-oxadiazole-5-carboxamide]
- Dmax [1]: 99%
- Mouse Bone Marrow (%) (% remaining BTK, vehicle versus treated) (BTK in mouse bone marrow): 26%

SMILES: C[C@@H](NC(=O)c1nc(C(C)(C)C)no1)c1ccc(-c2cc(Nc3ccc(N4CCN(CCc5ccc(N6CCC(=O)NC6=O)cc5)C[C@@H]4C)cn3)ncn2)cc1Cl [Example 14, 3-tert-butyl-N-[(1R)-1-{2-chloro-4-[6-({5-[(2S)-4-{2-[4-(2,4-dioxo-1,3-diazinan-1-yl)phenyl]ethyl}-2-methylpiperazin-1-yl]pyridin-2-yl}amino)pyrimidin-4-yl]phenyl}ethyl]-1,2,4-oxadiazole-5-carboxamide]
- Dmax [1]: 99.7%
- Mouse Bone Marrow (%) (% remaining BTK, vehicle versus treated) (BTK in mouse bone marrow): 16%

SMILES: Cc1cc(-c2cc(Nc3ccc(N4CCN(CCc5ccc(N6CCC(=O)NC6=O)cc5)CC4(C)C)cn3)ncn2)ccc1[C@@H](C)NC(=O)c1nc(C(C)(C)C)no1 [Example 9, 3-tert-butyl-N-{(1R)-1-[4-(6-{{5-(4-{2-[4-(2,4-dioxo-1,3-diazinan-1-yl)phenyl]ethyl}-2,2-dimethylpiperazin-1-yl)pyridin-2-yl}amino}pyrimidin-4-yl)-2-methylphenyl]ethyl}-1,2,4-oxadiazole-5-carboxamide]
- Dmax [1]: 99.5%
- Mouse Bone Marrow (%) (% remaining BTK, vehicle versus treated) (BTK in mouse bone marrow): 31%

SMILES: CC[C@H]1CN(CCc2ccc(N3CCC(=O)NC3=O)c(F)c2)CCN1c1ccc(Nc2cc(-c3ccc([C@@H](C)NC(=O)c4nc(C(C)(C)C)no4)c(C)c3)ncn2)nc1 [Example 7, 3-tert-butyl-N-[(1R)-1-{4-[6-({5-[(2S)-4-{2-[4-(2,4-dioxo-1,3-diazinan-1-yl)-3-fluorophenyl]ethyl}-2-ethylpiperazin-1-yl]pyridin-2-yl}amino)pyrimidin-4-yl]-2-methylphenyl}ethyl]-1,2,4-oxadiazole-5-carboxamide]
- Dmax [1]: 99.3%
- Mouse Bone Marrow (%) (% remaining BTK, vehicle versus treated) (BTK in mouse bone marrow): 22%

SMILES: Cc1cc(-c2cc(Nc3ccc(N4CCN(CCc5ccc(N6CCC(=O)NC6=O)c(F)c5)C[C@H]4C)cn3)ncn2)ccc1[C@@H](C)NC(=O)c1nc(C(C)(C)C)no1 [Example 5, 3-tert-butyl-N-[(1R)-1-{4-[6-({5-[(2R)-4-{2-[4-(2,4-dioxo-1,3-diazinan-1-yl)-3-fluorophenyl]ethyl}-2-methylpiperazin-1-yl]pyridin-2-yl}amino)pyrimidin-4-yl]-2-methylphenyl}ethyl]-1,2,4-oxadiazole-5-carboxamide]
- Dmax [1]: 99.3%
- Mouse Bone Marrow (%) (% remaining BTK, vehicle versus treated) (BTK in mouse bone marrow): 12%

SMILES: CC[C@H]1CN(CCc2ccc(N3CCC(=O)NC3=O)cc2)CCN1c1ccc(Nc2cc(-c3ccc([C@@H](C)NC(=O)c4nc(C(C)(C)C)no4)c(C)c3)ncn2)nc1 [Example 6, 3-tert-butyl-N-[(1R)-1-{4-[6-({5-[(2S)-4-{2-[4-(2,4-dioxo-1,3-diazinan-1-yl)phenyl]ethyl}-2-ethylpiperazin-1-yl]pyridin-2-yl}amino)pyrimidin-4-yl]-2-methylphenyl}ethyl]-1,2,4-oxadiazole-5-carboxamide]
- Dmax [1]: 99.8%
- Mouse Bone Marrow (%) (% remaining BTK, vehicle versus treated) (BTK in mouse bone marrow): 19%

SMILES: Cc1cc(-c2cc(Nc3ccc(N4CCN(CCc5ccc(N6CCC(=O)NC6=O)c(F)c5)C[C@@H]4C)cn3)ncn2)ccc1[C@@H](C)NC(=O)c1nc(C(C)(C)C)no1 [Example 4, 3-tert-butyl-N-[(1R)-1-{4-[6-({5-[(2S)-4-{2-[4-(2,4-dioxo-1,3-diazinan-1-yl)-3-fluorophenyl]ethyl}-2-methylpiperazin-1-yl]pyridin-2-yl}amino)pyrimidin-4-yl]-2-methylphenyl}ethyl]-1,2,4-oxadiazole-5-carboxamide]
- Dmax [1]: 99.8%
- Mouse Bone Marrow (%) (% remaining BTK, vehicle versus treated) (BTK in mouse bone marrow): 13%
